Data as given in patent publication US4855304A, “Dinucleoside pyrophosphates and pyrophosphate homologs as plant antivirals” (Repligen Corporation, priority 1985, dated 1989).
Read-outs that look alike come from different tables or passages of the source.

Tests used:
[1] = test system: TMV (tobacco mosaic virus) replication in intact N. glutinosa plants; test: Antiviral activity in N. glutinosa intact plants, infectivity test (local lesions); type: in vivo, tobacco mosaic virus; Nicotiana glutinosa
Experimental: (§1) Nicotiana glutinosa and N. tabacum var. samsum plants were grown in potting medium in greenhouse conditions (25±3° C., and constant illumination). The plants were fertilized with a commercial fertilizer every two weeks. Plants were used at 5-8 leaf stage (Devash, Y., Biggs, S. and Sela, I. [1982] Science 216: 1415-1416; Devash, Y. et al. [1984] Jour. Biol. Chem. 259: 3482-3486).
The ability of the antiviral dinucleotides to inhibit TMV replication in intact N. glutinosa plants (containing N-gene for TMV localization) was determined by infectivity tests. Solutions containing 5 μg/ml TMV, 0.1 μg/ml carborundum, and antiviral dinucleotide were applied to 5 half-leaves of N. glutinosa. The opposite half-leaves served as controls and were inoculated with infecting solution containing TMV and carborundum but no dinucleotides. The infection was allowed to proceed 48 hr. Inhibition of TMV replication was calculated as the percent of local lesions produced in antiviral compound treated half-leaves, as compared to control half-leaves.

[2] = test system: TMV (tobacco mosaic virus) replication in TMV-infected tobacco leaf discs; test: Antiviral activity in TMV-infected leaf discs (TMV content by ELISA); type: cell-based, tobacco mosaic virus; leaf discs of N. tabacum var. samsun; set-up: key to TMV content: N.I.: no inhibition; conditions: for inhibition at 0.1 µM / inhibition at 0.2 µM: Tobacco mosaic virus, read-out: percent inhibition as related to control
Experimental: Assays for antiviral activity in TMV-infected leaf discs were done using leaves of N. tabacum var. samsun in which TMV is systemically spread. Leaves were mechanically inoculated with purified TMV (5 μg/ml in 0.01M sodium phosphate buffer, pH 7.6, containing 0.1 g/ml of carborundum as an abrasive). Immediately after infection, leaf discs (6.5 mm diameter) were punched out of the inoculated leaves and placed in a beaker containing 0.01M sodium phosphate, pH 7.6.
selected at random from this common pool and placed onto separate petri dishes, each containing 18 ml of 10 mM 4-(2-hydroxyethyl)-1-piperazine ethanesulfonic acid (HEPES)-KOH, pH 7.05, 188 mg/L Na2 HPO4 --7H2 O. […] At the end of the 1 hr incubation, the buffer containing the antiviral dinucleotide was replaced by a buffer lacking the antiviral dinucleotide for another hr. The discs were then washed with 0.01M sodium phosphate, pH 7.6, and were allowed to incubate for an additional 72 hr in phosphate buffer (Devash, Y., Biggs, S. and Sela, I. [1982] Science 216: 1415-1416; Devash, Y. et al. [1984] J. Biol. Chem. 259: 3482-3486). The discs were homogenized in 0.01M sodiuM phosphate buffer, pH 7.6, and the TMV content was determined by enzyme-linked immunosorbent assay (ELISA) as described below.
(§2) The TMV content of the homogenates was determined by ELISA essentially by the method of Clark and Adams ([1977] J. Gen. Virol. 34: 475-483) but with the following order of layers on the microtiter plates.
(§3) (a) the γ-globulin fraction of a serum obtained from a chicken immunized against TMV was absorbed directly to the plate.
(§4) (b) The next layer was the tested sample (at various dilutions) or a series of purified TMV suspensions at known concentrations (calibration curve).
(§5) (c) The third layer was the γ-globulin from the serum of a TMV-immunized rabbit.
(§6) (d) The final layer was goat antibody to rabbit immunoglobulin G conjugated with alkaline phosphatase (Sigma). The release of phosphate from p-nitrophenyl phosphate due to the antibody-conjugated alkaline phosphatase was monitored spectrophotometrically with a Microplate reader (Dynatech Diagnostics, Inc. South Windham, ME) and was proportional to TMV concentration in a log linear manner for about two logs (<2 ng to>200 ng). (Devash, Y., Biggs, S. and Sela, I. [1982] Science 216: 1415-1416)
The γ-globulin fraction of serum obtained from chickens and rabbits immunized against TMV were generous gifts from Professor Ilan Sela, The Hebrew University of Jerusalem, Agriculture Faculty, Rehobot, Israel.

[3] = test system: TMV (tobacco mosaic virus) in N. tabacum plants; test: Root application to N. tabacum intact plants (TMV content by ELISA); type: in vivo, tobacco mosaic virus; Nicotiana tabacum; conditions: 1 μM, roots, 2 hr
Experimental: as §1
Nicotiana tabacum plants were used as a source of plant tissue in which TMV is spread systemically.
(a) Root application: N. tabacum plants were removed from their pots and transferred into 50 ml tubes containing 10 ml of 10 mM HEPES-KOH, pH 7.6, and the antiviral dinucleotides. Two hr later, plants were transferred into 50 ml tubes lacking the antiviral compound and were inoculated by TMV as described above. Twenty-four hr later leaves were homogenized in 0.01M sodium phosphate buffer, pH 7.6, (1 g leaves/3 ml buffer) and TMV content was determined by ELISA.
as §2, §3, §4, §5, §6
In order to establish the relationship of the induced resistance to the N-gene for viral localization and to the transmission ability of the compounds, a comparison between leaf application and root application of antiviral dinucleotides to N. tabacum plants was made. N. tabacum plants were removed into vials containing 10 ml of 10 mM HEPES-KOH, pH 7.6, and 1 μM of antiviral dinucleotide. The plant roots were allowed to remain in the solutions for 2 hr and then were transferred to vials containing the buffer without the antiviral compounds.
The plants then were infected with TMV as above. (See section 4. Antiviral activity on N. tabacum intact plants, paragraph [a].) Another group of N. tabacum plants was tested as described in the above-noted section, paragraph (b).

With Nc1ncnc2c1ncn2[C@@H]1O[C@H](COP(=O)(O)OP(=O)(O)OP(=O)(O)OC[C@H]2O[C@@H](n3cnc4c(N)ncnc43)[C@H](O)[C@@H]2O)[C@@H](O)[C@H]1O [A5'ppp5'A, diadenosine 5',5"'-p^1,p3 -triphosphate] the “percent protection as compared to control TMV infected leaves” value (“percent protection” below) ([1]; 10 nM (10^-8 M), non-treated half-leaf) was 80.3%, the “percent protection” value ([1]; 10 nM (10^-8 M), treated half-leaf) was 98.6% and the “percent protection” value ([1]; 100 nM (10^-7 M), non-treated half-leaf) was 100%. For the same molecule, the “percent protection” value ([1]; 100 nM (10^-7 M), treated half-leaf) was 100%, the “induced resistance to TMV infection in the non-treated half-leaf” value ([1]; 1 μM (10^-6 M), in words) was “resulted in an induced resistance to TMV infection even in the non-treated half-leaf” and the “percent protection” value ([1]; 1000 nM (10^-6 M), non-treated half-leaf) was 100%. The “percent protection” value ([1]; 1000 nM (10^-6 M), treated half-leaf) was 100%, the TMV content ([2]; 100 nM, treatment with [Ca^+2] coprecipitation, control 75) was 65 ngTMV/ml and the TMV content ([2]; 100 nM, treatment without [Ca^+2] coprecipitation, control 56) was “N.I”. The TMV content ([2]; 200 nM, treatment with [Ca^+2] coprecipitation, control 75) was 38 ngTMV/ml, the TMV content ([2]; 200 nM, treatment without [Ca^+2] coprecipitation, control 56) was “N.I” and the inhibition at 0.1 µM ([2]; 100 nM, treatment with [Ca^+2] coprecipitation) was 13%. For the same molecule, the inhibition at 0.1 µM ([2]; 100 nM, treatment without [Ca^+2] coprecipitation) was 0%, the inhibition at 0.2 µM ([2]; 200 nM, treatment with [Ca^+2] coprecipitation) was 50% and the inhibition at 0.2 µM ([2]; 200 nM, treatment without [Ca^+2] coprecipitation) was 0%. For the same molecule, the “% Protection” value [3] was 51% and the “ng TMV/g of leaves” value ([3]; control 200) was 98 ng TMV/g of leaves.
